Data published in patent publication US8148367B2 (Takeda Pharmaceutical Company Limited, priority 2008, dated 2012).

biological target: T1, Recombinant human renin (Homo sapiens, UniProt P00797); assay: In vitro enzymatic activity assay of renin inhibitors (fluorescence, QXL520/HiLyteFluo488 peptide substrate); type: biochemical; settings: recombinant human renin 3 nM, 1 μM substrate, pre-incubated 10 minutes at 37° C., incubation one hour, pH 7.4, 5% DMSO; read-out: IC50 of Exemplified Compounds Against Renin
T1 construct: isolate the active form (residues 67-406); made in house; host or cells: FreeStyle 293-F cells, transient expression of pcDNA3.1(+)/hREN
T1 sequence (P00797 67-406): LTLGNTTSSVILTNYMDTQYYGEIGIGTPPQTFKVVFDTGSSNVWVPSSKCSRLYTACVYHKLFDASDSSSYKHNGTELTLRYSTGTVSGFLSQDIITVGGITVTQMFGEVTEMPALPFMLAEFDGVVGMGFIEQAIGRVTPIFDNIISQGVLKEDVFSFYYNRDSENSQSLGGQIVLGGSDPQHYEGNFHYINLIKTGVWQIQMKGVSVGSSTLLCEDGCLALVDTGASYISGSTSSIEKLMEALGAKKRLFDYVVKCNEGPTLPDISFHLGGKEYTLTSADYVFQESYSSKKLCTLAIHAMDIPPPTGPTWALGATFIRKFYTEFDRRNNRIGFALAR

Row | IC50 | Compound
1 | 0.1 to 0.5 µM | COc1ccccc1-n1c(-c2ccccc2)c(C(=O)N2CCNCC2)n(CCNC(=O)c2ccccc2)c1=O [Example 168, N-(2-(3-(2-Methoxyphenyl)-2-oxo-4-phenyl-5-(piperazine-1-carbonyl)-2,3-dihydro-1H-imidazol-1-yl)ethyl)benzamide]
2 | 0.1 to 0.5 µM | COc1cccc(Cn2c(C(=O)N3CCNCC3)c(-c3ccccc3)n(-c3ccccc3C)c2=O)c1 [Example 143, 1-(3-Methoxybenzyl)-4-phenyl-5-(piperazine-1-carbonyl)-3-o-tolyl-1H-imidazol-2(3H)-one]
3 | > 1 µM | Cc1ccccc1-n1c(-c2ccccc2)c(C(=O)N2CCNCC2)n(CCNC(=O)C2CCCCC2)c1=O [Example 237, N-(2-(2-oxo-4-phenyl-5-(piperazine-1-carbonyl)-3-o-tolyl-2,3-dihydro-1H-imidazol-1-yl)ethyl)cyclohexanecarboxamide]
4 | > 1 µM | CC1CN(C(=O)c2[nH]c(=O)n(C3CCCCC3)c2-c2ccccc2)CC(C)N1 (stereo not shown) [Example 40, 1-Cyclohexyl-4-(3,5-dimethylpiperazine-1-carbonyl)-5-phenyl-1H-imidazol-2(3H)-one]
5 | 0.1 to 0.5 µM | O=C(c1c(-c2ccccc2)n(-c2cccc(N3CCOCC3)c2)c(=O)n1Cc1ccccc1)N1CCNCC1 [Example 56, 1-Benzyl-3-(3-morpholinophenyl)-4-phenyl-5-(piperazine-1-carbonyl)-1H-imidazol-2(3H)-one]
6 | 0.1 to 0.5 µM | COc1cccc(NC(=O)NCCCn2c(C(=O)N3CCNCC3)c(-c3ccccc3)n(-c3ccccc3C)c2=O)c1 [Example 226, 1-(3-Methoxyphenyl)-3-(3-(2-oxo-4-phenyl-5-(piperazine-1-carbonyl)-3-o-tolyl-2,3-dihydro-1H-imidazol-1-yl)propyl)urea]
7 | > 1 µM | O=C(c1ccccc1)N1CCCC(n2c(-c3ccccc3)c(C(=O)N3CCNCC3)n(Cc3ccccc3)c2=O)C1 (stereo not shown) [Example 95, 1-(1-Benzoylpiperidin-3-yl)-3-benzyl-5-phenyl-4-(piperazine-1-carbonyl)-1H-imidazol-2(3H)-one]
8 | > 1 µM | O=C(O)COc1cccc(Cn2c(C(=O)N3CCNCC3)c(-c3ccccc3)n(-c3cccc(N4CCOCC4)c3)c2=O)c1 [Example 59, 2-(3-((3-(3-Morpholinophenyl)-2-oxo-4-phenyl-5-(piperazine-1-carbonyl)-2,3-dihydro-1H-imidazol-1-yl)methyl)phenoxy)acetic acid]
9 | > 1 µM | Cc1ccccc1-n1c(-c2ccccc2)c(C(=O)N2CCNCC2)n(CCCNS(=O)(=O)C(C)C)c1=O [Example 239, N-(3-(2-oxo-4-phenyl-5-(piperazine-1-carbonyl)-3-o-tolyl-2,3-dihydro-1H-imidazol-1-yl)propyl)propane-2-sulfonamide]
10 | < 0.1 µM | Cc1ccccc1-n1c(-c2ccccc2)c(C(=O)N2CCNC[C@H]2Cc2ccccc2)[nH]c1=O [Example 116, (R)-4-(2-Benzylpiperazine-1-carbonyl)-5-phenyl-1-o-tolyl-1H-imidazol-2(3H)-one]
11 | 0.1 to 0.5 µM | O=C(c1c(-c2ccccc2)n(C2CCCN(S(=O)(=O)c3ccccn3)C2)c(=O)n1Cc1cccc(Oc2ccccc2)c1)N1CCNCC1 (stereo not shown) [Example 103, 1-(3-Phenoxybenzyl)-4-phenyl-5-(piperazine-1-carbonyl)-3-(1-(pyridin-2-ylsulfonyl)piperidin-3-yl)-1H-imidazol-2(3H)-one]
12 | > 1 µM | Cc1ccccc1-n1c(-c2ccccc2)c(C(=O)N2CCNCC2)n(CCNS(=O)(=O)c2ccccc2)c1=O [Example 155, N-(2-(2-oxo-4-Phenyl-5-(piperazine-1-carbonyl)-3-o-tolyl-2,3-dihydro-1H-imidazol-1-yl)ethyl)benzenesulfonamide]
13 | 0.5 to 1 µM | Cc1ccccc1-n1c(-c2ccccc2)c(C(=O)N2CCNCC2)n(CCNS(=O)(=O)c2ccccc2Cl)c1=O [Example 204, 2-Chloro-N-(2-(2-oxo-4-phenyl-5-(piperazine-1-carbonyl)-3-o-tolyl-2,3-dihydro-1H-imidazol-1-yl)ethyl)benzenesulfonamide]
14 | < 0.1 µM | CCCS(=O)(=O)Nc1ccccc1-n1c(-c2ccccc2)c(C(=O)N2CCNC[C@H]2Cc2ccccc2)[nH]c1=O [Example 119, (R)—N-(2-(4-(2-Benzylpiperazine-1-carbonyl)-2-oxo-5-phenyl-2,3-dihydro-1H-imidazol-1-yl)phenyl)propane-1-sulfonamide]
15 | > 1 µM | COC(=O)c1cccc(Cn2c(C(=O)N3CCNCC3)c(-c3ccccc3)n(-c3ccccc3)c2=O)c1 [Example 80, Methyl 3-((2-oxo-3,4-diphenyl-5-(piperazine-1-carbonyl)-2,3-dihydro-1H-imidazol-1-yl)methyl)benzoate]
16 | 0.5 to 1 µM | O=C(c1[nH]c(=O)n(-c2ccc3c(c2)NCCC3)c1C1CC1)N1CCNC[C@H]1Cc1ccccc1 [Example 134, (R)-4-(2-Benzylpiperazine-1-carbonyl)-5-cyclopropyl-1-(1,2,3,4-tetrahydroquinolin-7-yl)-1H-imidazol-2(3H)-one]

Row | IC50 | Compound
17 | 0.5 to 1 µM | COCCCOc1cccc(-n2c(-c3ccccc3)c(C(=O)N3CCNCC3)n(CCCNC(=O)c3ccccc3)c2=O)c1 [Example 179, N-(3-(3-(3-(3-Methoxypropoxy)phenyl)-2-oxo-4-phenyl-5-(piperazine-1-carbonyl)-2,3-dihydro-1H-imidazol-1-yl)propyl)benzamide]
18 | > 1 µM | COCCCOc1cccc(-n2c(-c3ccccc3)c(C(=O)N3CCNCC3)n(CCNS(=O)(=O)c3ccccc3)c2=O)c1 [Example 183, N-(2-(3-(3-(3-Methoxypropoxy)phenyl)-2-oxo-4-phenyl-5-(piperazine-1-carbonyl)-2,3-dihydro-1H-imidazol-1-yl)ethyl)benzenesulfonamide]
19 | > 1 µM | COCCOc1ccccc1-n1c(-c2ccccc2)c(C(=O)N2CCNCC2)[nH]c1=O [Example 32, 1-(2-(2-Methoxyethoxy)phenyl)-5-phenyl-4-(piperazine-1-carbonyl)-1H-imidazol-2(3H)-one]
20 | > 1 µM | CC(=O)N1CCCC(n2c(-c3ccccc3)c(C(=O)N3CCNCC3)n(Cc3cccc(Oc4ccccc4)c3)c2=O)C1 (stereo not shown) [Example 99, 1-(1-Acetylpiperidin-3-yl)-3-(3-phenoxybenzyl)-5-phenyl-4-(piperazine-1-carbonyl)-1H-imidazol-2(3H)-one]
21 | > 1 µM | Cc1ccccc1-n1c(-c2ccccc2)c(C(=O)N2CCNCC2)n(CCNC(=O)OCc2ccccc2)c1=O [Example 251, Benzyl 2-(2-oxo-4-phenyl-5-(piperazine-1-carbonyl)-3-o-tolyl-2,3-dihydro-1H-imidazol-1-yl)ethylcarbamate]
22 | 0.1 to 0.5 µM | COc1ccccc1-n1c(-c2ccccc2)c(C(=O)N2CCNCC2)n(Cc2cccc(Oc3ccccc3)c2)c1=O [Example 146, 1-(2-Methoxyphenyl)-3-(3-phenoxybenzyl)-5-phenyl-4-(piperazine-1-carbonyl)-1H-imidazol-2(3H)-one]
23 | 0.5 to 1 µM | O=C(c1c(-c2ccccc2)n(C2CCCN(S(=O)(=O)c3ccccc3)C2)c(=O)n1Cc1ccccc1)N1CCNCC1 (stereo not shown) [Example 96, 1-Benzyl-4-phenyl-3-(1-(phenylsulfonyl)piperidin-3-yl)-5-(piperazine-1-carbonyl)-1H-imidazol-2(3H)-one]
24 | > 1 µM | Cc1ccccc1-n1c(-c2ccccc2)c(C(=O)N2CCNCC2)n(CCCNC(=O)c2ccccc2)c1=O [Example 156, N-(3-(2-oxo-4-Phenyl-5-(piperazine-1-carbonyl)-3-o-tolyl-2,3-dihydro-1H-imidazol-1-yl)propyl)benzamide]
25 | 0.5 to 1 µM | Cc1ccccc1-n1c(-c2ccccc2)c(C(=O)N2CCNCC2)n(Cc2ccc(F)c(F)c2)c1=O [Example 144, 1-(3,4-Difluorobenzyl)-4-phenyl-5-(piperazine-1-carbonyl)-3-o-tolyl-1H-imidazol-2(3H)-one]
26 | > 1 µM | O=C(c1c(-c2ccccc2)n(-c2cccc(N3CCOCC3)c2)c(=O)n1CC1CCCCC1)N1CCNCC1 [Example 189, 1-(Cyclohexylmethyl)-3-(3-morpholinophenyl)-4-phenyl-5-(piperazine-1-carbonyl)-1H-imidazol-2(3H)-one]
27 | > 1 µM | CC(C)CC(=O)NCCn1c(C(=O)N2CCNCC2)c(-c2ccccc2)n(C2CCCC[C@@H]2O)c1=O (stereo partly drawn) [Example 173, N-(2-(3-((2S)-2-Hydroxycyclohexyl)-2-oxo-4-phenyl-5-(piperazine-1-carbonyl)-2,3-dihydro-1H-imidazol-1-yl)ethyl)-3-methylbutanamide]
28 | < 0.1 µM | O=C(Nc1ccccc1-n1c(-c2ccccc2)c(C(=O)N2CCNC[C@H]2Cc2ccccc2)[nH]c1=O)c1ccccc1 [Example 124, (R)—N-(2-(4-(2-Benzylpiperazine-1-carbonyl)-2-oxo-5-phenyl-2,3-dihydro-1H-imidazol-1-yl)phenyl)benzamide]
29 | > 1 µM | COc1ccccc1-n1c(-c2ccccc2)c(C(=O)N2CCNCC2)n(CCNS(=O)(=O)c2ccccc2)c1=O [Example 158, N-(2-(3-(2-Methoxyphenyl)-2-oxo-4-phenyl-5-(piperazine-1-carbonyl)-2,3-dihydro-1H-imidazol-1-yl)ethyl)benzenesulfonamide]
30 | 0.5 to 1 µM | Cc1ccccc1-n1c(-c2ccccc2)c(C(=O)N2CCNCC2)n(CCNC(=O)c2ccccc2)c1=O [Example 166, N-(2-(2-oxo-4-Phenyl-5-(piperazine-1-carbonyl)-3-o-tolyl-2,3-dihydro-1H-imidazol-1-yl)ethyl)benzamide]
31 | > 1 µM | NC(=O)Cn1c(C(=O)N2CCNCC2)c(-c2ccccc2)n(C2CCCCC2)c1=O [Example 63, 2-(3-Cyclohexyl-2-oxo-4-phenyl-5-(piperazine-1-carbonyl)-2,3-dihydro-1H-imidazol-1-yl)acetamide]
